Entries after “also recorded” stand apart in the source; their conditions may differ. Counter-ions that a name gives are not always drawn. Like-named read-outs stand apart in the source and are kept apart here.
Tests used:
MERS-CoV [1] = conditions: cited from earlier work
SARS-CoV [2] = conditions: cited from earlier work
MERS-CoV [3] = experiment: microbe, parasite or virus in culture; type: cell-based, MERS-CoV strain Hu/Jordan-N3/2012; conditions: for EC50: read-out: EC50 against MERS-CoV
SARS-CoV [4] = type: cell-based
MERS-CoV [5] = type: cell-based
MERS-S pseudoparticles = type: cell-based, MERS-CoV
SARS-CoV [6] = conditions: mouse, in vivo; cited from earlier work
SARS-CoV [7] = experiment: microbe, parasite or virus in culture; type: cell-based; conditions: Severe acute respiratory syndrome coronavirus, Vero C1008, read-out: EC50 for SARS-CoV (virus production, TCID50)
MERS-CoV (Jordan) = experiment: microbe, parasite or virus in culture; type: cell-based; conditions: Middle East respiratory syndrome-related coronavirus, Vero C1008, read-out: EC50 for MERS-CoV (virus production, TCID50)
MERS-CoV [8] = experiment: microbe, parasite or virus in culture; type: cell-based; conditions: Middle East respiratory syndrome-related coronavirus, Vero C1008, read-out: IC50 value for MERS-CoV (TCID50 assay)
SARS-CoV [9] = experiment: microbe, parasite or virus in culture; type: cell-based; conditions: Severe acute respiratory syndrome coronavirus, Vero C1008, read-out: IC50 value for SARS-CoV (TCID50 assay)
[10] = Middle East respiratory syndrome-related coronavirus, Vero C1008, 48 h, read-out: IC50 against MERS-CoV
[11] = Middle East respiratory syndrome-related coronavirus, Vero C1008, 48 h, read-out: MERS-CoV IC50
[12] = Middle East respiratory syndrome-related coronavirus, Vero

| SMILES | toxicity (Vero E6 cells) | IC50 (MERS-CoV [3]; [11]) | other results |
| --- | --- | --- | --- |
| COc1c(C)c2c(c(O)c1C/C=C(\C)CCC(=O)O)C(=O)OC2 [mycophenolic acid (MPA), mycophenolic acid] |  |  | effect against MERS-CoV infection in vitro (MERS-CoV [1]): highly effective; activity against SARS-CoV infection (SARS-CoV [2]): little activity |
| CN(C)CCCN1c2ccccc2Sc2ccc(C(F)(F)F)cc21 [Triflupromazine hydrochloride] | low toxicity | 5.76 µM | IC50 (MERS-CoV [3]; [10]): 5.76 to 12.9 µM; IC50 (MERS-CoV [3]; read-out: IC50 against MERS-CoV, hydrochloride): 5.76 µM |
| CN1CCN(CC/C=C2/c3ccccc3Sc3ccc(S(=O)(=O)N(C)C)cc32)CC1 [Thiothixene] |  | 9.3 µM |  |
| CCSc1ccc2c(c1)N(CCCN1CCN(C)CC1)c1ccccc1S2 [Thiethylperazine maleate] |  | 7.87 µM |  |
| CC[C@H]1CN2CCc3cc(OC)c(OC)cc3[C@@H]2C[C@@H]1C[C@H]1NCCc2cc(OC)c(OC)cc21 |  | 0.014 µM |  |
| CC(C)N1CCN(c2ccc(OCC3COC(Cn4cncn4)(c4ccc(Cl)cc4Cl)O3)cc2)CC1 (centres unmarked) [Terconazole] |  | 12.2 µM |  |
| Cc1ccc(NC(=O)c2ccc(CN3CCN(C)CC3)cc2)cc1Nc1nccc(-c2cccnc2)n1 [Imatinib mesylate] | low toxicity |  | inhibition of virus growth, SARS-CoV (SARS-CoV [4]): significant inhibition of virus growth; also recorded: little inhibition of either virus; inhibition of virus growth, MERS-CoV (MERS-CoV [5]): significant inhibition of virus growth; also recorded: little inhibition of either virus; CCF2 signal (fluorescence) (MERS-S pseudoparticles): 7.8 % of control |
| CCN(CC)CCCC(C)Nc1ccnc2cc(Cl)ccc12 (centres unmarked) [Chloroquine Phosphate] |  | 6.28 µM | efficacy in reducing SARS-CoV virus titers (SARS-CoV [6]): did not show efficacy; EC50 (SARS-CoV [7]): 6.43 µM; EC50 (MERS-CoV [3]; [12]): 9.51 µM; EC50 (MERS-CoV [3]): 6.28 µM; EC50 (MERS-CoV (Jordan)): 18.4 µM |
| Cc1cn(-c2cc(NC(=O)c3ccc(C)c(Nc4nccc(-c5cccnc5)n4)c3)cc(C(F)(F)F)c2)cn1 [Nilotinib] | low toxicity | 5.47 µM | IC50 (MERS-CoV [8]): 9.53 µM; IC50 (SARS-CoV [9]): 2.3 µM; inhibition of virus growth, SARS-CoV (SARS-CoV [4]): significant inhibition of virus growth; also recorded: little inhibition of either virus; activity against MERS-CoV (in words) (MERS-CoV [3]): does not significantly inhibit MERS-CoV; maximum inhibition of MERS-CoV (MERS-CoV [3]): 39% |
| CCN(CCO)CCCC(C)Nc1ccnc2cc(Cl)ccc12 (centres unmarked) [Hydroxychloroquine sulfate] |  | 8.28 µM |  |
| CC(CN1c2ccccc2Sc2ccccc21)N(C)C (centres unmarked) [Promethazine hydrochloride] |  | 11.8 µM |  |
| Nc1ccn([C@@H]2O[C@H](CO)[C@@H](O)C2(F)F)c(=O)n1 [Gemcitabine hydrochloride] | low toxicity | 1.22 µM | EC50 (MERS-CoV [3]; [12]): 1.2 µM; CCF2 signal (fluorescence) (MERS-S pseudoparticles): 95 % of control |
| CCN(CC)Cc1cc(Nc2ccnc3cc(Cl)ccc23)ccc1O |  | 6.21 µM |  |
| OC(c1cc(C(F)(F)F)nc2c(C(F)(F)F)cccc12)C1CCCCN1 (centres unmarked) [Mefloquine] |  | 7.42 µM |  |
| COC(=O)C[C@](O)(CCCC(C)(C)O)C(=O)O[C@@H]1C(OC)=C[C@]23CCCN2CCc2cc4c(cc2[C@H]13)OCO4 [Homoharringtonine] |  | 0.0718 µM |  |
| COc1ccc(C[C@H]2NC[C@H](O)[C@H]2OC(C)=O)cc1 [Anisomycin] |  |  | IC50 (MERS-CoV [3]; read-out: MERS-CoV IC50): 0.003 µM |
| COC(=O)Nc1nc2ccc(C(=O)c3cccs3)cc2[nH]1 [nocodazole] |  |  | activity against MERS-CoV (in words) (MERS-CoV [3]): high activity |
| CCN(CC)CCOc1ccc(C(O)(Cc2ccc(Cl)cc2)c2ccc(C)cc2)cc1 (centres unmarked) [Triparanol] |  | 5.28 µM |  |
| CN(C)CCOC(C)(c1ccccc1)c1ccc(Cl)cc1 (centres unmarked) [Chlorphenoxamine hydrochloride] |  | 12.6 µM |  |
| CN(C)CCCN1c2ccccc2Sc2ccc(Cl)cc21 [Chlorpromazine hydrochloride] | low toxicity | 9.51 µM | EC50 (SARS-CoV [7]): 4.86 µM; IC50 (MERS-CoV [3]; [10]): 5.76 to 12.9 µM; EC50 (MERS-CoV (Jordan)): 19.4 µM |
| Cc1nc(Nc2ncc(C(=O)Nc3c(C)cccc3Cl)s2)cc(N2CCN(CCO)CC2)n1 [dasatinib] | low toxicity |  |  |
| CN(C)CCOc1ccc(/C(=C(/CCCl)c2ccccc2)c2ccccc2)cc1 [Toremifene citrate] | low toxicity | 12.9 µM | EC50 (MERS-CoV [3]; [12]): 12.9 µM |
| O=C1NCN(c2ccccc2)C12CCN(CCCC(c1ccc(F)cc1)c1ccc(F)cc1)CC2 [Fluspirilene] |  | 7.48 µM |  |
